The values below come from PubChem BioAssay (NCI).

What all share (test): DTP human tumour cell line panel, 48 h
In assay [1] the test system is CCRF-CEM leukemia.
In assay [2] the test system is HCT-116 colon.
The subject of assay [3] is HL-60(TB) leukemia.
For assay [4], the system named is MCF7 breast.
In assay [5] the test system is MDA-MB-231 breast.
Assay [6] relates to PC-3 prostate.
Assay [7] deals with SK-MEL-2 melanoma.
The subject of assay [8] is TK-10 renal.
Assay [9] deals with UACC-257 melanoma.
Assay [10] has as its system UO-31 renal.

Each structure is given as a SMILES string.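 These data come from cells grown in 96-well plates and exposed to compound for 48 hours at five concentrations. GI50: concentration for 50% inhibition of growth. TGI marks complete inhibition of growth.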 Some results are limits rather than exact numbers.

Take `CC(C)(C)[Si](C)(C)OC1[C@@H](O[Si](C)(C)C(C)(C)C)[C@@H](CNC(=O)NC(=O)CF)O[C@H]1n1cnc2c(NC(=O)Nc3ccccc3)ncnc21` (stereo partly drawn): the GI50 in [1] is 11.6 µM; in assay [2] it was 5.21 µM; in assay [3], 17.4 µM; in [4] it was 1.78 µM; in [5] it was 7.76 µM; in assay [6] it was 2.19 µM. In addition, the GI50 in assay [7] was 30.9 µM; in [8], 16.5 µM; in assay [9] it was 20 µM; in assay [10], 11.2 µM. The total growth inhibition concentration (TGI) in assay [1] was over 50 µM; in assay [2], 20.5 µM; in assay [3], over 50 µM; in [4] it was 13.2 µM; in assay [5] it was 23.1 µM; in assay [6], over 50 µM. Moreover, the TGI in [7] was over 50 µM; in assay [8] it was 41.7 µM; in assay [9], over 50 µM; in assay [10], over 50 µM.
As for `Cc1nc(-c2nc(-c3ccc(OC(F)(F)F)cc3)no2)nn1Cc1cccc(N2CCC(S(C)(=O)=O)CC2)c1`, the GI50 in [1] was 7.41 µM; in assay [2] it was under 0.01 µM; in [4] it was 0.0136 µM; in assay [5] it was 17.6 µM; in assay [6], 3.59 µM; in assay [7] it was over 35.1 µM. The GI50 is 4.41 µM in assay [8], 0.286 µM in assay [9] and 1.46 µM in assay [10]. Further, the TGI was over 100 µM in [1]; over 100 µM in [2]; over 49.5 µM in [3]; 48.6 µM in assay [4]; over 100 µM in [5]; 55.2 µM in assay [6]. The total growth inhibition concentration (TGI) in assay [7] was over 86.5 µM; in [8], over 100 µM; in assay [9], over 86.6 µM; in assay [10], over 100 µM.
Consider `O=C([O][Hg][CH2]C1OCCOC1[CH2][Hg][O]C(=O)c1ccccc1)c1ccccc1` (stereo not drawn), for which the GI50 in assay [1] is 1.66 µM; in assay [2], 4.21 µM; in [3] it was 2.67 µM; in assay [4] it was 1.97 µM; in [5], 16.3 µM; in [6] it was 6.52 µM. Besides, the GI50 in assay [7] is 5.05 µM; in assay [8], 1.91 µM; in assay [9], 1.89 µM; in assay [10] it was 1.79 µM. The TGI was over 23.4 µM in [1]; 8.37 µM in assay [2]; 7.41 µM in assay [3]; 24.4 µM in [4]; 31.7 µM in assay [5]; 14.6 µM in assay [6]. The TGI in assay [8] amounted to 3.35 µM; in assay [9], 3.4 µM; in assay [10], 3.27 µM.
Consider `COc1ccc2c(c1)CC[C@@H]1[C@@H]2CC[C@]2(C)c3c(cc(C(=O)O)c4sccc34)C[C@@H]12`, for which the GI50 in assay [1] is 3.42 µM; in [2], 11.2 µM; in assay [3] it was 8.61 µM; in assay [4] it was 17.2 µM; in assay [5], 25.6 µM; in assay [6], 10.5 µM. In addition, the GI50 was 37.5 µM in assay [7], 19.2 µM in [8], 26.7 µM in assay [9] and 20.2 µM in assay [10]. Moreover, the TGI in assay [1] worked out at 13.3 µM; in [2], 24.8 µM; in assay [3] it was 25.3 µM; in assay [4] it was 59 µM; in [5] it was 59.7 µM; in assay [6], 25.1 µM. Besides, the TGI in assay [7] is over 100 µM; in assay [8], 48.1 µM; in assay [9] it was 61.4 µM; in assay [10], 64.7 µM.
`CCN1C(=O)N(CC)C2C1NN=c1s/c(=C\c3ccco3)c(=O)n12` (stereo not drawn): the GI50 in [1] is 0.368 µM; in assay [2], 0.436 µM; in assay [3], 0.284 µM; in assay [4], 0.361 µM; in [5] it was 0.961 µM; in [6] it was 0.455 µM. Besides, the GI50 in assay [7] is 0.84 µM; in assay [8], 19.7 µM; in assay [9] it was over 100 µM; in assay [10], 0.852 µM. The total growth inhibition concentration (TGI) in [1] was over 100 µM; in assay [2], over 100 µM; in [3], 6 µM; in [4], over 100 µM; in assay [5], 41.2 µM; in [6], over 100 µM. The TGI in assay [7], in assay [8], in assay [9] and in assay [10] was over 100 µM throughout.
Regarding `N=N/C(=C\c1c(O)[nH]c2ccccc12)c1ccccc1`, the TGI in assay [1] is 25.2 µM; in assay [2], over 59.3 µM; in assay [3], 17.5 µM; in assay [4], over 100 µM; in [5], over 76.5 µM; in assay [6], over 70.7 µM. Also, the TGI in [7], in assay [8], in assay [9] and in assay [10] was over 100 µM throughout.
With `CCNC(=O)Nc1ccc(Oc2ccnc3ccc4c(ccn4C)c23)cc1`, the GI50 was 18.9 µM in assay [1]; 21.2 µM in [2]; over 100 µM in assay [3]; 37.9 µM in assay [4]; 26.3 µM in [5]; over 100 µM in [6]. Also, the GI50 was 45.8 µM in [7], 33.5 µM in assay [8], 28.4 µM in assay [9] and 92.3 µM in assay [10]. Besides, the TGI in assay [1] is over 100 µM; in assay [2], over 100 µM; in [3], over 100 µM; in [4] it was over 100 µM; in [5] it was 62.8 µM; in assay [6] it was over 100 µM. For the same compound, the total growth inhibition concentration (TGI) was over 100 µM in assay [7], 99.3 µM in assay [8], 86.2 µM in [9] and over 100 µM in assay [10].

As usually defined, the GI50 is the concentration at which growth is held to half of that of the control. As a reminder, the TGI is the concentration at which net growth stops. Low values mean greater sensitivity of the cells, high ones lower sensitivity of the cells.
